Test results published in patent US6399313B1, “AMPA-binding human GluR2 receptors” (NPS Allelix Corp., priority 1992, dated 2002).

Target: T1, human GluR2B receptor (Homo sapiens, UniProt P42262)
T1 construct: transported to the cell surface in mature form, lacking the signal peptide and consisting of 862 amino acids; expressed in transfected cells; host or cells: COS-1 (ATCC CRL 1650), transient, plasmid pcDNA1/humGluR2B
Assay: ligand binding assay (NMDA) with membranes of cells producing human GluR2B
Conditions: method for NMDA not described

T1 sequence (P42262 25-883): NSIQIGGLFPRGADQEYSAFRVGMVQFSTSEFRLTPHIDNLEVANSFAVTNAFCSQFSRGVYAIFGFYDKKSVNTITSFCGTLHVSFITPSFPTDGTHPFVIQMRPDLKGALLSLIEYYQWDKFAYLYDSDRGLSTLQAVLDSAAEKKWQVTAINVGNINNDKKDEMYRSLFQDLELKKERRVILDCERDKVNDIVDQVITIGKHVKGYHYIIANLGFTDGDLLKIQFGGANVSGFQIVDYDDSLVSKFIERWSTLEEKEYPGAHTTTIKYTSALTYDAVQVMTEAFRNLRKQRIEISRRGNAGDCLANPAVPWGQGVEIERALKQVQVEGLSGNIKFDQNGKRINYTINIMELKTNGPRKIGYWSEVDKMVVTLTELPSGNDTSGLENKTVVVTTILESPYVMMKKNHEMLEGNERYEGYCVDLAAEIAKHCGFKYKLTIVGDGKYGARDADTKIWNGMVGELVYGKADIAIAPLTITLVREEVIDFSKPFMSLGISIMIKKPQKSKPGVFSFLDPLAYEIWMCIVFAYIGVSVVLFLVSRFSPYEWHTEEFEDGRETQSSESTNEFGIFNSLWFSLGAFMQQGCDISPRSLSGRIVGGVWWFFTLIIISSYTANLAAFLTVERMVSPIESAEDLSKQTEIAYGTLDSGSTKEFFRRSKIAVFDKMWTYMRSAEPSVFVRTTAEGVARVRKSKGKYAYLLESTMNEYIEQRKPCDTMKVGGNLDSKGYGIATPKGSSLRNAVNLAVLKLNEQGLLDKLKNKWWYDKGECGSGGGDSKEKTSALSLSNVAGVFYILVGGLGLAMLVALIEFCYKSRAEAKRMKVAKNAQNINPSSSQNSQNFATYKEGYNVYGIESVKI

## CN[C@H](CC(=O)O)C(=O)O [NMDA, N-methyl-D-aspartate]
  binding to human GluR2B receptor (in words): little or no demonstrable binding
